Reference: patent US9624229B2, “Pyrimidine-2-amine compounds and their use as inhibitors of JAK kinases” (Rigel Pharmaceuticals, Inc., priority 2008, dated 2017)
Where two headings read alike, the source gives them in different places.

Biological target: Ba/F3 V617F cells (Homo sapiens, UniProt O60674, V617F, cells depend on it)
Experiment: Proliferation assay (Cell Titer-Glo, 72 h) utilizing Ba/F3 V617F cells
Assay type: cell-based, mouse
Method in brief: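 Ba/F3 V617F cells in RPMI/10% FBS, 1×10^5 cells/mL, exposed in duplicate to 3-fold serial compound dilutions (top 5 mM DMSO stock, diluted 1:250, added as 2× solution in 5% FBS medium) for 72 h at 37 °C. Viability by Cell Titer-Glo luminescence; IC50 reported.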

[1] = Ba/F3 V617F cells, proliferation, level of activity to inhibit JAK2, read-out: IC50 (the source's name)
[2] = inhibition of JAK2 activity, proliferation of Ba/F3 V617F cells, read-out: IC50 (the source's name)

Sequence of Ba/F3 V617F cells (O60674 whole entry V617F): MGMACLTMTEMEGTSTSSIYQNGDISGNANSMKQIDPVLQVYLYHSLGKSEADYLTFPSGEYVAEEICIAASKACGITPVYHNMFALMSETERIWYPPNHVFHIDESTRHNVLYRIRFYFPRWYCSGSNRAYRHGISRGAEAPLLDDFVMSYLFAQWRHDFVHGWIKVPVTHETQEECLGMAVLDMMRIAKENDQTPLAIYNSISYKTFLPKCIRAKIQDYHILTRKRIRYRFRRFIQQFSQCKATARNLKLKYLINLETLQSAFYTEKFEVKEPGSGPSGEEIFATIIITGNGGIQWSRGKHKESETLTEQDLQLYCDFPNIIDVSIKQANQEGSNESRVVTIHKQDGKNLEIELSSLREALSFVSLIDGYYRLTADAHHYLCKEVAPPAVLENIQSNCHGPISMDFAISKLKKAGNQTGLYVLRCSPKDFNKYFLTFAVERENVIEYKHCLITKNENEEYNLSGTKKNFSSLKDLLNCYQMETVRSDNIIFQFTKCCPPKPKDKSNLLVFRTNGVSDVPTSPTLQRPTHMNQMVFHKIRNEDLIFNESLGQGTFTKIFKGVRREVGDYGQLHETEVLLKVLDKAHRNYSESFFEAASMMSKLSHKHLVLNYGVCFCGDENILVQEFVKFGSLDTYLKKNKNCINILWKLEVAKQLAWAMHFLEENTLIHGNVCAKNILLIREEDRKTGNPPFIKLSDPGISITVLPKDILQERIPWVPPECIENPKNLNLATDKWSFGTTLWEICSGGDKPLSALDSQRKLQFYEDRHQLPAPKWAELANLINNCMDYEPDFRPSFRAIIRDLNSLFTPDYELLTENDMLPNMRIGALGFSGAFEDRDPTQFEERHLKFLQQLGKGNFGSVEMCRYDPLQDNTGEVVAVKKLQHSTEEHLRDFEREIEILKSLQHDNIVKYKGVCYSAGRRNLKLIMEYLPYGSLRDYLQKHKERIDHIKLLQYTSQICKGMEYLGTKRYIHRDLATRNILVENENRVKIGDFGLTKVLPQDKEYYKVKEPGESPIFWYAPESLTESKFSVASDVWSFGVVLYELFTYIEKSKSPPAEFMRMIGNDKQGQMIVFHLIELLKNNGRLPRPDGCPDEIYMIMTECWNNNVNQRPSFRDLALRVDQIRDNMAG

Structure (SMILES)	GI50 [1]	GI50 [2]
CN1C[C@@H]2C[C@H]1CN2c1ccc(Nc2nccc(-c3ccc(C(=O)Nc4ccccn4)cc3)n2)cc1F [compound 133, 4-(4-((pyridin-2-yl)aminocarbonyl)phenyl)-N-(3-fluoro-4-((1S,4S)-5-methyl-2,5-diazabicyclo[2.2.1]heptan-2-yl)phenyl)pyrimidin-2-amine]	1 to 10 µM	–
Cc1cc(Nc2nccc(-c3ccc(C(=O)Nc4ccccn4)cc3)n2)ccc1N1C[C@@H]2C[C@H]1CN2C [compound 134, 4-(4-((pyridin-2-yl)aminocarbonyl)phenyl)-N-(3-methyl-4-((1S,4S)-5-methyl-2,5-diazabicyclo[2.2.1]heptan-2-yl)phenyl)pyrimidin-2-amine]	< 1 µM	–
CN1C[C@@H]2C[C@H]1CN2c1ccc(Nc2nccc(-c3ccc(NS(C)(=O)=O)cc3)n2)cc1F [compound 135, 4-(4-(methylsulfonylamino)phenyl)-N-(3-fluoro-4-((1S,4S)-5-methyl-2,5-diazabicyclo[2.2.1]heptan-2-yl)phenyl)pyrimidin-2-amine]	< 1 µM	–
Cc1cc(Nc2nccc(-c3ccc(NS(C)(=O)=O)cc3)n2)ccc1N1C[C@@H]2C[C@H]1CN2C [compound 136, 4-(4-(methylsulfonylamino)phenyl)-N-(3-methyl-4-((1S,4S)-5-methyl-2,5-diazabicyclo[2.2.1]heptan-2-yl)phenyl)pyrimidin-2-amine]	< 1 µM	–
CN1C[C@@H]2C[C@H]1CN2c1ccc(Nc2nccc(-c3cnc4c(c3)OC(C)(C)C(=O)N4)n2)cc1 [compound 137, 4-(2,2-dimethyl-3-oxo-3,4-dihydro-2H-pyrido[3,2-b][1,4]oxazin-7-yl)-N-(4-((1S,4S)-5-methyl-2,5-diazabicyclo[2.2.1]heptan-2-yl)phenyl)pyrimidin-2-amine]	< 1 µM	–
Cc1cc(Nc2nccc(-c3cnc4c(c3)OC(C)(C)C(=O)N4)n2)cnc1N1C[C@@H]2C[C@H]1CN2C [compound 138, 4-(2,2-dimethyl-3-oxo-3,4-dihydro-2H-pyrido[3,2-b][1,4]oxazin-7-yl)-N-(5-methyl-6-((1S,4S)-5-methyl-2,5-diazabicyclo[2.2.1]heptan-2-yl)pyridin-3-yl)pyrimidin-2-amine]	–	< 1 µM
CN1C[C@@H]2C[C@H]1CN2c1ccc(Nc2nccc(-c3ccc(NC(=O)NC4CC4)cc3)n2)cc1 [compound 139, 4-(4-(3-cyclopropylureido)phenyl)-N-(4-((1S,4S)-5-methyl-2,5-diazabicyclo[2.2.1]heptan-2-yl)phenyl)pyrimidin-2-amine]	< 1 µM	–
Cc1cc(Nc2nccc(-c3ccc(NC(=O)NC4CC4)cc3)n2)cnc1N1C[C@@H]2C[C@H]1CN2C [compound 140, 4-(4-(3-cyclopropylureido)phenyl)-N-(5-methyl-6-((1S,4S)-5-methyl-2,5-diazabicyclo[2.2.1]heptan-2-yl)pyridin-3-yl)pyrimidin-2-amine]	–	1 to 10 µM
Cc1cc(Nc2nccc(-c3ccc(NC(=O)CN4CCOCC4)nc3)n2)ccc1N1C[C@@H]2C[C@H]1CN2C [compound 141, 4-(6-(2-(morpholin-4-yl)acetamido)pyridin-3-yl)-N-(3-methyl-4-((1S,4S)-5-methyl-2,5-diazabicyclo[2.2.1]heptan-2-yl)phenyl)pyrimidin-2-amine]	< 1 µM	–
CN1C[C@@H]2C[C@H]1CN2c1ccc(Nc2nccc(-c3ccc(NC(=O)CN4CCOCC4)nc3)n2)cc1 [compound 142, 4-(6-(2-(morpholin-4-yl)acetamido)pyridin-3-yl)-N-(4-((1S,4S)-5-methyl-2,5-diazabicyclo[2.2.1]heptan-2-yl)phenyl)pyrimidin-2-amine]	1 to 10 µM	–
CN1C[C@@H]2C[C@H]1CN2c1ccc(Nc2nccc(-c3ccc(NC(=O)CN4CCOCC4)nc3)n2)cc1F [compound 143, 4-(6-(2-(morpholin-4-yl)acetamido)pyridin-3-yl)-N-(3-fluoro-4-((1S,4S)-5-methyl-2,5-diazabicyclo[2.2.1]heptan-2-yl)phenyl)pyrimidin-2-amine]	1 to 10 µM	–
Cc1cc(Nc2nccc(-c3ccc(NC(=O)CN4CCOCC4)nc3)n2)cnc1N1C[C@@H]2C[C@H]1CN2C [compound 144, 4-(6-(2-(morpholin-4-yl)acetamido)pyridin-3-yl)-N-(5-methyl-6-((1S,4S)-5-methyl-2,5-diazabicyclo[2.2.1]heptan-2-yl)pyridin-3-yl)pyrimidin-2-amine]	–	1 to 10 µM
Cc1cc(Nc2nccc(-c3ccc(N)nc3)n2)cnc1N1C[C@@H]2C[C@H]1CN2C [compound 145, 4-(6-aminopyridin-3-yl)-N-(5-methyl-6-((1S,4S)-5-methyl-2,5-diazabicyclo[2.2.1]heptan-2-yl)pyridin-3-yl)pyrimidin-2-amine]	–	< 1 µM
CC(=O)Nc1ccc(-c2ccnc(Nc3cnc(N4C[C@@H]5C[C@H]4CN5C)c(C)c3)n2)cn1 [compound 146, 4-(6-(acetamido)pyridin-3-yl)-N-(5-methyl-6-((1S,4S)-5-methyl-2,5-diazabicyclo[2.2.1]heptan-2-yl)pyridin-3-yl)pyrimidin-2-amine]	–	1 to 10 µM
CC(=O)Nc1ccc(-c2ccnc(Nc3ccc(N4C[C@@H]5C[C@H]4CO5)c(C)c3)n2)cn1 [compound 147, 4-(6-(acetamido)pyridin-3-yl)-N-(3-methyl-4-((1S,4S)-5-oxa-2-azabicyclo[2.2.1]heptan-2-yl)phenyl)pyrimidin-2-amine]	< 1 µM	–
CCC(=O)N1C[C@@H]2C[C@H]1CN2c1ccc(Nc2nccc(-c3ccc(N)nc3)n2)cc1C [compound 148, 4-(6-aminopyridin-3-yl)-N-(3-methyl-4-((1S,4S)-5-ethylcarbonyl-2,5-diazabicyclo[2.2.1]heptan-2-yl)phenyl)pyrimidin-2-amine]	< 1 µM	–
CCC(=O)N1C[C@@H]2C[C@H]1CN2c1ccc(Nc2nccc(-c3ccc(NC(C)=O)nc3)n2)cc1C [compound 149, 4-(6-(acetamido)pyridin-3-yl)-N-(3-methyl-4-((1S,4S)-5-ethylcarbonyl-2,5-diazabicyclo[2.2.1]heptan-2-yl)phenyl)pyrimidin-2-amine]	< 1 µM	–
Cc1cc(Nc2nccc(-c3ccc(N)nc3)n2)ccc1N1C[C@@H]2C[C@H]1CN2S(C)(=O)=O [compound 150, 4-(6-aminopyridin-3-yl)-N-(3-methyl-4-((1S,4S)-5-methylsulfonyl-2,5-diazabicyclo[2.2.1]heptan-2-yl)phenyl)pyrimidin-2-amine]	< 1 µM	–
Cc1cc(Nc2nccc(-c3ccc(NS(C)(=O)=O)nc3)n2)ccc1N1C[C@@H]2C[C@H]1CN2C [compound 151, 4-(6-(methylsulfonylamino)pyridin-3-yl)-N-(3-methyl-4-((1S,4S)-5-methyl-2,5-diazabicyclo[2.2.1]heptan-2-yl)phenyl)pyrimidin-2-amine]	1 to 10 µM	–
Cc1cc(Nc2nccc(-c3ccc(NC(=O)CN(C)C)nc3)n2)ccc1N1C[C@@H]2C[C@H]1CN2C [compound 152, 4-(6-(2-(dimethylamino)acetamido)-pyridin-3-yl)-N-(3-methyl-4-((1S,4S)-5-methyl-2,5-diazabicyclo[2.2.1]heptan-2-yl)phenyl)pyrimidin-2-amine]	< 1 µM	–
CN1C[C@@H]2C[C@H]1CN2c1ccc(Nc2nccc(-c3ccc(NS(C)(=O)=O)nc3)n2)cc1F [compound 153, 4-(6-(methylsulfonylamino)pyridin-3-yl)-N-(3-fluoro-4-((1S,4S)-5-methyl-2,5-diazabicyclo[2.2.1]heptan-2-yl)phenyl)pyrimidin-2-amine]	1 to 10 µM	–
Cc1cc(Nc2nccc(-c3ccc(NS(C)(=O)=O)nc3)n2)cnc1N1C[C@@H]2C[C@H]1CN2C [compound 154, 4-(6-(methylsulfonylamino)pyridin-3-yl)-N-(5-methyl-6-((1S,4S)-5-methyl-2,5-diazabicyclo[2.2.1]heptan-2-yl)pyridin-3-yl)pyrimidin-2-amine]	–	> 20 µM
CN1C2CCC1CN(c1ccc(Nc3nccc(-c4ccc(N5CCOCC5)nc4)n3)cc1)C2 [compound 155, 4-(6-(morpholin-4-yl)pyridin-3-yl)-N-(4-(8-methyl-3,8-diazabicyclo[3.2.1]octan-3-yl)phenyl)pyrimidin-2-amine]	< 1 µM	–
CN1C2CCC1CN(c1ccc(Nc3nccc(-c4ccc(NS(C)(=O)=O)nc4)n3)cc1)C2 [compound 156, 4-(6-(methylsulfonylamino)pyridin-3-yl)-N-(4-(8-methyl-3,8-diazabicyclo[3.2.1]octan-3-yl)phenyl)pyrimidin-2-amine]	1 to 10 µM	–
CN1C2CCC1CN(c1ccc(Nc3nccc(-c4cnc5c(c4)OC(C)(C)C(=O)N5)n3)cc1)C2 [compound 157, 4-(2,2-dimethyl-3-oxo-3,4-dihydro-2H-pyrido[3,2-b][1,4]oxazin-7-yl)-N-(4-(8-methyl-3,8-diazabicyclo[3.2.1]octan-3-yl)phenyl)pyrimidin-2-amine]	< 1 µM	–
CN1C2CCC1CN(c1ccc(Nc3nccc(-c4ccc(N)nc4)n3)cc1)C2 [compound 158, 4-(6-aminopyridin-3-yl)-N-(4-(8-methyl-3,8-diazabicyclo[3.2.1]octan-3-yl)phenyl)pyrimidin-2-amine]	< 1 µM	–
Cc1cc(Nc2nccc(-c3ccc(N4CCOCC4)nc3)n2)ccc1N1CCN2CCC1CC2 [compound 159, 4-(6-(morpholin-4-yl)pyridin-3-yl)-N-(3-methyl-4-(1,4-diazabicyclo[3.2.2]nonan-4-yl)phenyl)pyrimidin-2-amine]	< 1 µM	–
Cc1cc(Nc2nccc(-c3cnc4c(c3)OC(C)(C)C(=O)N4)n2)ccc1N1CCN2CCC1CC2 [compound 160, 4-(2,2-dimethyl-3-oxo-3,4-dihydro-2H-pyrido[3,2-b][1,4]oxazin-7-yl)-N-(3-methyl-4-(1,4-diazabicyclo[3.2.2]nonan-4-yl)phenyl)pyrimidin-2-amine]	< 1 µM	–
Cc1cc(Nc2nccc(-c3ccc(C(=O)Nc4ccccn4)cc3)n2)ccc1N1CCN2CCC1CC2 [compound 161, 4-(4-((pyridin-2-yl)aminocarbonyl)phenyl)-N-(3-methyl-4-(1,4-diazabicyclo[3.2.2]nonan-4-yl)phenyl)pyrimidin-2-amine]	< 1 µM	–
